The results in this text go back to PubChem BioAssay AID504455 (Sanford-Burnham Center for Chemical Genomics, 2011).

The target of this assay is Apelin receptor (Homo sapiens) (UniProt P35414). Description: blockers of apelin-13-driven APJ signaling – cell-based, CHO-K1 AGTRL-1, PathHunter luminescence, set 6, SAR follow-up (AID 504455). Particulars: CHO-K1 APJ beta-arrestin PathHunter, apelin-13 antagonism.

Calls of active or inactive are those of the source.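 How the source made its calls: active means compounds whose mean IC50 is below 20 µM; inactive means the rest.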 A value given as a limit tells only on which side of the number the result lay.

Sequence of Apelin receptor (Homo sapiens) (P35414 whole entry, looked up): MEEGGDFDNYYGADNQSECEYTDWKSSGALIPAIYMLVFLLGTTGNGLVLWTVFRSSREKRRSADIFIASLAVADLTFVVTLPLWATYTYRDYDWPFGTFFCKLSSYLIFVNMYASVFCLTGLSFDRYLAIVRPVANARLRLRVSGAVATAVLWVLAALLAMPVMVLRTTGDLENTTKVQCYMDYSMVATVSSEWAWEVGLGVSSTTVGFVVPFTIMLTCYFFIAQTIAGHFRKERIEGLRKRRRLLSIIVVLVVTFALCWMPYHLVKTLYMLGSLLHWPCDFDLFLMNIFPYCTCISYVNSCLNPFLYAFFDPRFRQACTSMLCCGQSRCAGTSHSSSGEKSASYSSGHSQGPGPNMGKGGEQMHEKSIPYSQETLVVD

As usually defined, the IC50 is the concentration that gives 50% inhibition. As to `Cc1ccnc(SCc2cc(=O)c(OC(=O)c3ccc(C#N)cc3)co2)n1`, the IC50 is 11.5 µM.

As for `Cc1ccnc(SCc2cc(=O)c(OC(=O)c3ccccc3)co2)n1`, the IC50 is > 79 µM (inactive).

Turning to `Cc1ccc(C(=O)Oc2coc(CSc3ncccn3)cc2=O)cc1[N+](=O)[O-]`, the concentration for half-maximal inhibition (IC50) is 10.9 µM.

With `Cc1ccnc(SCc2cc(=O)c(OC(=O)c3ccc([N+](=O)[O-])cc3)co2)n1`, the half-inhibitory concentration (IC50) was 3.11 µM.

`N#Cc1ccc(C(=O)Oc2coc(CSc3ncccn3)cc2=O)cc1`: the IC50 is 9.77 µM.
